Results from patent US11236084B2, “Substituted azaindoline derivatives as NIK inhibitors” (Janssen Pharmaceutica NV, priority 2017, dated 2022).
pIC50: −log10 of the molar value. Where two headings read alike, the source gives them in different places.

What was measured:
[1] = target: recombinant human NF-kappaB-inducing kinase (NIK/MAP3K14) (Homo sapiens, UniProt Q99558); test: Biological Assay B: inhibition of auto-phosphorylation of recombinant human NIK/MAP3K14 (AlphaScreen), performed at 2 locations; assay type: biochemical; conditions: averaged values
Chain of recombinant human NF-kappaB-inducing kinase (NIK/MAP3K14) (Q99558 whole entry): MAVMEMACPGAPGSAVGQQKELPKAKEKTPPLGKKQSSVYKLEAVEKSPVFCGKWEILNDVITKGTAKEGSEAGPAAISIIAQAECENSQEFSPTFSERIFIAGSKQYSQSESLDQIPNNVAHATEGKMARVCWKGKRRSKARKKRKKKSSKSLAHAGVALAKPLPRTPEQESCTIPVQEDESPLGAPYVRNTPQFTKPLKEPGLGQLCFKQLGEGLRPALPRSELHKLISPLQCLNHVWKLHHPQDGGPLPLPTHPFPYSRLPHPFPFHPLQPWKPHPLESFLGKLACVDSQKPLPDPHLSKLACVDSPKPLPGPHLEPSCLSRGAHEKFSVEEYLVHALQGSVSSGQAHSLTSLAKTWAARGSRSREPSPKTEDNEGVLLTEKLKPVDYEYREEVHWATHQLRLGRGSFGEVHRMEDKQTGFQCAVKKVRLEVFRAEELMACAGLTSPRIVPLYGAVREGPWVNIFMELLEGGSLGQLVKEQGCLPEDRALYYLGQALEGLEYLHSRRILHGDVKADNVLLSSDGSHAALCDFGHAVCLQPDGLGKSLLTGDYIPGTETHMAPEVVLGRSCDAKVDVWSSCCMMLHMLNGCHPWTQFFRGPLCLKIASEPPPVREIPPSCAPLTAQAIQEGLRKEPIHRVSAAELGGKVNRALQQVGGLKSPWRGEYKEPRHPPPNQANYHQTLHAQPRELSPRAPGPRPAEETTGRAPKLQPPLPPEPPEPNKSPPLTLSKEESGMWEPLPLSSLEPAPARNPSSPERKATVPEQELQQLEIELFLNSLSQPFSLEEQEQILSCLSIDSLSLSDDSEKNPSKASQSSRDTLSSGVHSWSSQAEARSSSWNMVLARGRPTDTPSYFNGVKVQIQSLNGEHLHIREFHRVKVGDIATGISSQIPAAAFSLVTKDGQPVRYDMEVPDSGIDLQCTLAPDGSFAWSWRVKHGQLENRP
How it was run: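 Run at two separate sites: 1 h, 25° C. reactions containing 0.2 nM GST-NIK, 25 microM ATP and compound (1% DMSO) in Tris pH 7.5/MgCl2 buffer. Phosphorylation detected via anti-phospho-IKK Ser176/180 antibody with AlphaScreen beads; IC50 fitted to % inhibition.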

[2] = test system: P-IKKα levels in L363 (NIK translocated multiple myeloma) cells; test: Biological Assay C: effect of compounds on P-IKKα levels in L363 (NIK translocated multiple myeloma) cells, performed at 2 locations; assay type: cell-based, human; conditions: averaged values
Experimental: Effect of Compounds on P-IKKα Levels in L363 (NIK Translocated Multiple Myeloma) Cells
All compounds tested were dissolved in DMSO and further dilutions were made in culture medium. Final DMSO concentration was 1% (v/v) in cell assays. The human L363 cells (ATCC) were cultured in RPMI 1640 medium supplemented with GlutaMax and 10% fetal calf serum (PAA). Cells were routinely maintained at densities of 0.2×10^6 cells per ml-1×10^6 cells per ml at 37° C. in a humidified 5% CO2 atmosphere. Cells were passaged twice a week splitting back to obtain the low density. Cells were seeded in 96 well plates (Nunc 167008) at 2×10^6 per ml media in a volume of 75 μl per well plus 25 μl […] recombinant human B-cell activating factor (BAFF/BLyS/TNFSF13B). Seeded cells were incubated at 37° C. in a humidified 5% CO2 atmosphere for 24 hr. Drugs and/or solvents were added (20 μl) to a final volume of 120 μl. Following 2 hr treatment plates were removed from the incubator and cell lysis was achieved by the addition of 30 μl 5× lysis buffer followed by shaking on a plate shaker at 4° C. for 10 min. At the end of this incubation lysed cells were centrifuged at 800×g for 20 min at 4° C. and the lysate was assessed for P-IKKα levels by sandwich immuno-assay carried out in anti-rabbit antibody coated Mesoscale plates. Within an experiment, the results for each treatment were the mean of 2 replicate wells. For initial screening purposes, compounds were tested using an 8 point dilution curve (serial 1:3 dilutions). For each experiment, controls (containing MG132 and BAFF but no test drug) and a blank incubation (containing MG132 and BAFF and 1 μM ADS125117, a test concentration known to give full inhibition) were run in parallel. The blank incubation value was subtracted from all control and sample values. To determine the IC50 a sigmoidal curve was fitted to the plot of % inhibition of control P-IKKα levels versus Log10 compound concentration.
Assay C was performed at 2 different locations.
Data for the compounds of the invention in the above assays are provided in Table A (the values in Table are averaged values over all measurements on all batches of a compound; values as IC50 (nM)). (‘n.c.’ means not calculated: ‘Co.’ means compound)

[3] = location 1, AlphaScreen auto-phosphorylation, read-out: Assay B location 1 IC50
[4] = location 2, AlphaScreen auto-phosphorylation, read-out: Assay B location 2 IC50
[5] = Homo sapiens, L-363, location 1, L363 cells, P-IKKα levels, read-out: Assay C location 1 IC50
[6] = Homo sapiens, L-363, location 2, L363 cells, P-IKKα levels, read-out: Assay C location 2 IC50
[7] = location 1, NIK auto-phosphorylation, AlphaScreen, read-out: Assay B location 1 IC50
[8] = Homo sapiens, L-363, 2 h, location 1, P-IKKα levels in L363 cells, 2 hr treatment, read-out: Assay C location 1 IC50

Row | Compound | pIC50 [1, 3] | pIC50 [1, 4] | pIC50 [2, 5] | pIC50 [2, 6] | further results
1 | COc1cc(C(=O)NC2CCOCC2)c(Cl)cc1Nc1nccc(-c2cnc3c(c2)C(C)(CO)CN3)n1 (stereo not drawn) [Compound 8] | 8.34 | 8.80 | 8.08 | – | –
2 | COc1ccccc1Nc1nccc(-c2cnc3c(c2)C(C)(CO)CN3)n1 (stereo not drawn) [Compound 151] | – | 7.75 | ~6.04 | 6.17 | –
3 | COc1cc(C(=O)N2CCCC2)ccc1Nc1nccc(-c2cnc3c(c2)C(C)(CO)CN3)n1 (stereo not drawn) [Compound 138] | – | 8.20 | – | 6.63 | –
4 | COc1cc(C(=O)NC2CCOCC2)ccc1Nc1nccc(-c2cnc3c(c2)C(C)(CC#N)CN3)n1 (stereo not drawn) [Compound 147] | – | 8.39 | – | 7.28 | –
5 | COc1cc(C(=O)NC2CCCOCC2)ccc1Nc1nccc(-c2cnc3c(c2)C(C)(CO)CN3)n1 (stereo not drawn) [Compound 142] | – | 7.87 | 6.51 | 6.69 | –
6 | COc1cc(C(=O)N2CCCC(OC)CC2)ccc1Nc1nccc(-c2cnc3c(c2)C(C)(CO)CN3)n1 (stereo not drawn) [Compound 150] | – | 8.27 | – | 6.98 | –
7 | COc1cc(N2CCC(O)CC2)c(Cl)cc1Nc1nccc(-c2cnc3c(c2)C(C)(CO)CN3)n1 (single isomer, unassigned) [Compound 343] | – | – | – | – | pIC50 [1, 7]: 7.72; pIC50 ([2]; location 1, P-IKKα levels in L363 cells, 2 hr treatment, read-out: Assay C location 1 IC50): ~5.13
8 | COc1cc(N2CCN(C(C)C)CC2)c(Cl)cc1Nc1nccc(-c2cnc3c(c2)C(C)(CO)CN3)n1 (stereo not drawn) [Compound 14] | ~8.52 | 9.05 | 7.71 | – | –
9 | COc1cc(C(=O)N2CCCCCC2)ccc1Nc1nccc(-c2cnc3c(c2)C(C)(CO)CN3)n1 (stereo not drawn) [Compound 141] | – | 7.99 | – | 6.83 | –
10 | COc1cc(S(C)(=O)=O)c(Cl)cc1Nc1nccc(-c2cnc3c(c2)C(C)(CO)CN3)n1 (stereo not drawn) [Compound 331] | 8.19 | – | 7.10 | – | –
11 | COc1cc(S(C)(=O)=O)c(F)cc1Nc1nccc(-c2cnc3c(c2)C(C)(C)CN3)n1 [Compound 342] | – | – | – | – | pIC50 [1, 7]: 8.10; pIC50 ([1]; location 2, NIK auto-phosphorylation, AlphaScreen, read-out: Assay B location 2 IC50): 8.34; pIC50 [2, 8]: 6.81
12 | COc1cc(N2CCOCC2)c(C#N)cc1Nc1nccc(-c2cnc3c(c2)C(C)(CO)CN3)n1 (single isomer, unassigned) [Compound 4S] | – | 8.64 | ~6.82 | – | –
13 | COc1cc(C(=O)N2CCCCC2)ccc1Nc1nccc(-c2cnc3c(c2)C(C)(CO)CN3)n1 (stereo not drawn) [Compound 139] | 8.16 | 8.16 | 6.78 | 6.99 | –
14 | COc1cc(N2CC3(CCOCC3)C2)c(Cl)cc1Nc1nccc(-c2cnc3c(c2)C(C)(CO)CN3)n1 (single isomer, unassigned) [Compound 3S] | 8.17 | 8.89 | 7.76 | – | –
15 | COc1cc(C(=O)N2CCC(OC)C2)ccc1Nc1nccc(-c2cnc3c(c2)C(C)(CO)CN3)n1 (stereo not drawn) [Compound 136] | – | 8.48 | 6.45 | 6.64 | –
16 | CN1CCC(Oc2ccc(Cl)cc2Nc2nccc(-c3cnc4c(c3)C(C)(C)CN4)n2)CC1 [Compound 338] | – | – | – | – | pIC50 [1, 7]: 7.72; pIC50 [2, 8]: 5.41
17 | COc1cc(N2CC(OC)C2)c(Cl)cc1Nc1nccc(-c2cnc3c(c2)C(C)(CO)CN3)n1 (stereo not drawn) [Compound 269] | – | 8.74 | 7.38 | – | –

Row | Compound | pIC50 [1, 3] | pIC50 [1, 4] | pIC50 [2, 5] | pIC50 [2, 6] | further results
18 | COc1cc(N2CCC(O)CC2)c(Cl)cc1Nc1nccc(-c2cnc3c(c2)C(C)(CO)CN3)n1 (stereo not drawn) [Compound 301] | 8.27 | 8.96 | 7.63 | – | –
19 | CN(C)CCOc1cc(N2CCOCC2)c(Cl)cc1Nc1nccc(-c2cnc3c(c2)C(C)(CO)CN3)n1 (single isomer, unassigned) [Compound 272] | 6.82 | 6.91 | 5.04 | – | –
20 | CN1CCC(Oc2ccccc2Nc2nccc(-c3cnc4c(c3)C(C)(CO)CN4)n2)CC1 (stereo not drawn) [Compound 246] | 7.51 | 7.75 | ~5.70 | – | –
21 | COc1cc(N2CCC(N(C)C)CC2)c(Cl)cc1Nc1nccc(-c2cnc3c(c2)C(C)(CO)CN3)n1 (stereo not drawn) [Compound 277] | ~8.52 | 9.40 | 7.63 | – | –
22 | COc1cc(CNC(C)=O)ccc1Nc1nccc(-c2cnc3c(c2)C(C)(CO)CN3)n1 (stereo not drawn) [Compound 145] | – | 8.14 | – | 6.49 | –
23 | COc1cc(C(=O)NC2CCOC2)ccc1Nc1nccc(-c2cnc3c(c2)C(C)(CO)CN3)n1 (stereo not drawn) [Compound 137] | – | 8.30 | 6.47 | 6.46 | –
24 | COc1cc(C(=O)NC2CCOCC2)ccc1Nc1ncc(F)c(-c2cnc3c(c2)C(C)(CO)CN3)n1 (stereo not drawn) [Compound 2] | 8.26 | – | – | 7.16 | –
25 | COc1cc(N2CCN(C)CC2)c(Cl)cc1Nc1nccc(-c2cnc3c(c2)C(C)(CO)CN3)n1 (stereo not drawn) [Compound 267] | 8.33 | 9.30 | 7.54 | – | –
26 | COc1cc(S(C)(=O)=O)c(F)cc1Nc1nccc(-c2cnc3c(c2)C(C)(CO)CN3)n1 (stereo not drawn) [Compound 12] | 8.27 | 8.80 | 7.57 | – | –
27 | COc1cc(C(=O)N2CCN(C)CC2)ccc1Nc1nccc(-c2cnc3c(c2)C(C)(CO)CN3)n1 (stereo not drawn) [Compound 143] | 7.77 | 7.84 | – | 6.65 | –
28 | COc1cc(C(=O)NC2CCOCC2)c(Cl)cc1Nc1nccc(-c2cnc3c(c2)C(C)(C)CN3)n1 [Compound 299] | 8.49 | 9.05 | 7.53 | – | –
29 | COc1cc(N2CCOCC2)c(C#N)cc1Nc1nccc(-c2cnc3c(c2)C(C)(CO)CN3)n1 (stereo not drawn) [Compound 4] | 7.98 | 8.54 | 6.86 | – | –
30 | COc1cc(C(=O)N2CCC(OC)CC2)ccc1Nc1nccc(-c2cnc3c(c2)C(C)(CC#N)CN3)n1 (stereo not drawn) [Compound 148] | – | 8.32 | – | 6.80 | –
31 | CN1CCC(Oc2ccc(Cl)cc2Nc2nccc(-c3cnc4c(c3)C(C)(CO)CN4)n2)CC1 (stereo not drawn) [Compound 15] | 8.07 | – | 6.32 | – | –
32 | CC1(CO)CNc2ncc(-c3ccnc(Nc4ccccc4S(C)(=O)=O)n3)cc21 (stereo not drawn) [Compound 334] | 5.40 | – | < 5.00 | – | –
33 | COc1cc(C(=O)N(C)C)ccc1Nc1nccc(-c2cnc3c(c2)C(C)(CO)CN3)n1 (stereo not drawn) [Compound 153] | 7.73 | – | – | 6.37 | –
34 | CC1(CO)CNc2ncc(-c3ccnc(Nc4ccc(C(=O)NC5CCOCC5)cc4OC(F)F)n3)cc21 (stereo not drawn) [Compound 140] | – | 8.35 | – | 5.97 | –
